Test results: US20240067693A1, “POLYPEPTIDES AND USES THEREOF” (MEDIMMUNE LIMITED, priority 2020, published 2024)
Numbered stars: 1 amine (or outer) side, 2 acyl side, 3 side chain; on linkers, the order of the positions; unused ones are H or OH. Bridge positions count the residues as written; N and C are the ends. Square brackets hold non-standard residues; d marks the D form. Side chains are listed from the residue outwards. Peptide text beside a SMILES is read from it. * marks the point of attachment. C18 diacid = O=C(O)CCCCCCCCCCCCCCCCC(=O)*; γGlu = O=C(O)[C@H](CCC(=O)[*:2])N[*:1]; Dab = NCC[C@H](N)C(=O)O

Experiments:
[1] = target: T1, human calcitonin receptor (hCTR) (Homo sapiens, UniProt P30988); assay: cAMP production in 1321N1 cells with stable recombinant expression of human calcitonin receptor (hCTR); type: cell-based; conditions: cAMP, 1321N1 cells, assay buffer with 0.1% BSA; read-out: EC50 (pM) hCTR
T1 construct: expressed in transfected cells
T1 sequence (P30988 25-474): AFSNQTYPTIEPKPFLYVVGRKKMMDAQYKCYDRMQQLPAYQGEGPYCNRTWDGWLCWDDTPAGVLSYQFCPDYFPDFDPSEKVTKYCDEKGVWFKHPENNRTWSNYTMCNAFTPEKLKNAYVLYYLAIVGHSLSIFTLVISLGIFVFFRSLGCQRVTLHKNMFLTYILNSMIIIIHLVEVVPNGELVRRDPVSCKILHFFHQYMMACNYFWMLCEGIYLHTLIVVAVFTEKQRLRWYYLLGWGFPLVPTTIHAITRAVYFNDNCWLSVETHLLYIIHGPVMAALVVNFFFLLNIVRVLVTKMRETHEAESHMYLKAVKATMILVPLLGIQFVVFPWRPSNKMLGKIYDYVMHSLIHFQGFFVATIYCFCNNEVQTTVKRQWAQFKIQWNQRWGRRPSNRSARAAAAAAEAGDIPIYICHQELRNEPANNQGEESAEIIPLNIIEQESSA
How it was run: (§1)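 Thawed cells in HBSS/0.1% BSA/25 mM HEPES pH 7.4 with 0.5 mM IBMX were incubated with peptides 30 min at room temperature; cAMP read by HTRF. EC50 from 4-parameter fit of % activation relative to maximal amylin or calcitonin effect.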

[2] = target: T2, human amylin receptor (calcitonin receptor co-expressed with receptor activity modifying protein, RAMP3) (hAMYR3) (Homo sapiens, UniProt O60896+P30988); assay: cAMP production in 1321N1 cells with stable recombinant expression of human amylin receptor (hAMYR3); type: cell-based; conditions: for Ratio (selectivity hAMYR vs hCTR, ratio of EC50 values at the two receptors): EC50 hCTR / EC50 hAMYR3; for EC50: cAMP, 1321N1 cells, assay buffer with 0.1% BSA, read-out: EC50 (pM) hAMYR3
T2 construct: expressed in transfected cells
T2 sequence (P30988 25-474): T1 sequence (P30988 25-474)
T2 sequence (O60896 24-148 partner): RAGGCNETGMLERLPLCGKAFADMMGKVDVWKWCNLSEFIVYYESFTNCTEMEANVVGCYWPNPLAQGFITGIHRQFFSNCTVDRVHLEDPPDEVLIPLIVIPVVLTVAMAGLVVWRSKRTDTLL
How it was run: as §1

[3] = target: T3, rat calcitonin receptor (rat CTR) (Rattus norvegicus, UniProt P32214); assay: cAMP production in HEK cells with stable recombinant expression of rat calcitonin receptor (rat CTR); type: cell-based; conditions: assay buffer with 0.1% BSA
T3 construct: expressed in transfected cells
T3 sequence (P32214 25-516): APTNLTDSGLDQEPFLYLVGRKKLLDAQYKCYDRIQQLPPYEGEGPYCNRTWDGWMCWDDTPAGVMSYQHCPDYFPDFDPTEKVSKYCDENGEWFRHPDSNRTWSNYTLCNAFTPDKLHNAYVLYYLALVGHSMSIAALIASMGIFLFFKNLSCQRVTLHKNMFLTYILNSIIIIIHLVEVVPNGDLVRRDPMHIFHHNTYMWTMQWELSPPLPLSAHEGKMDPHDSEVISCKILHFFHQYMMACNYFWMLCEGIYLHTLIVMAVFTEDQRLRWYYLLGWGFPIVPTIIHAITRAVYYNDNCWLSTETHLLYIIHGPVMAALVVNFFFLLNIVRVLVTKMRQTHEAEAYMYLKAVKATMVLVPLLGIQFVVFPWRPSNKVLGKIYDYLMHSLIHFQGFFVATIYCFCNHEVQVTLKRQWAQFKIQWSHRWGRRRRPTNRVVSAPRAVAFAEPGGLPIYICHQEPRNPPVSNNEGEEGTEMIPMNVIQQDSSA
How it was run: as §1

in vivo = conditions: male, Sprague-Dawley, rat, 20 nmol/kg

| Compound | EC50 [1] | Ratio (selectivity hAMYR vs hCTR, ratio of EC50 values at the two receptors) [2] | EC50 [2] | EC50 [3] | half-life (in vivo; iv) | half-life (in vivo; sc) |
| --- | --- | --- | --- | --- | --- | --- |
| CC[C@H](C)[C@H](NC(=O)[C@@H]1CCCN1C(=O)CNC(=O)[C@H](Cc1ccccc1)NC(=O)[C@H](CC(N)=O)NC(=O)[C@H](CC(N)=O)NC(=O)[C@H](CO)NC(=O)[C@H](CO)NC(=O)[C@H](Cc1c[nH]cn1)NC(=O)[C@@H](NC(=O)[C@H](CC(C)C)NC(=O)[C@H](Cc1ccccc1)NC(=O)[C@H](CC(N)=O)NC(=O)[C@H](C)NC(=O)[C@H](CC(C)C)NC(=O)[C@H](CCCNC(=N)N)NC(=O)[C@H](CCC(N)=O)NC(=O)[C@@H](NC(=O)[C@H](C)NC(=O)[C@@H]1CSSC[C@H](NC(=O)[C@H](CCCCN)NC(=O)CC[C@H](NC(=O)CCCCCCCCCCCCCCCCC(=O)O)C(=O)O)C(=O)N[C@@H](CC(N)=O)C(=O)N[C@@H]([C@@H](C)O)C(=O)N[C@@H](C)C(=O)N[C@@H]([C@@H](C)O)C(=O)N1)[C@@H](C)O)C(C)C)C(=O)N[C@@H](CC(C)C)C(=O)N1CCC[C@H]1C(=O)N1CCC[C@H]1C(=O)N[C@H](C(=O)N[C@@H](CC(N)=O)C(=O)N[C@H](C(=O)NCC(=O)N[C@@H](CO)C(=O)N[C@@H](CC(N)=O)C(=O)N[C@H](C(=O)N[C@@H](Cc1ccc(O)cc1)C(N)=O)[C@@H](C)O)C(C)C)[C@@H](C)O [Peptide 3] ({C18 diacid-γGlu}-KCNTATCATQRLANFLVHSSNNFGPILPPTNVGSNTY-NH2; disulfide 2-7) | 1350 pM | 5 | 246 pM | 186 pM | 14 h | – |
| CC[C@H](C)[C@H](NC(=O)[C@H](C)NC(=O)[C@@H]1CCCN1C(=O)[C@H](Cc1ccccc1)NC(=O)[C@H](CC(N)=O)NC(=O)[C@H](CCN)NC(=O)[C@H](CO)NC(=O)[C@H](CO)NC(=O)[C@H](Cc1c[nH]cn1)NC(=O)[C@@H](NC(=O)[C@H](CC(C)C)NC(=O)[C@H](Cc1ccccc1)NC(=O)[C@H](CC(N)=O)NC(=O)[C@H](C)NC(=O)[C@H](CC(C)C)NC(=O)[C@H](CCCNC(=N)N)NC(=O)[C@H](CCC(N)=O)NC(=O)[C@@H](NC(=O)[C@H](C)NC(=O)[C@@H]1CSSC[C@H](NC(=O)[C@@H](N)CCCCNC(=O)CC[C@H](NC(=O)CC[C@H](NC(=O)CCCCCCCCCCCCCCCCC(=O)O)C(=O)O)C(=O)O)C(=O)N[C@@H](CC(N)=O)C(=O)N[C@@H]([C@@H](C)O)C(=O)N[C@@H](C)C(=O)N[C@@H]([C@@H](C)O)C(=O)N1)[C@@H](C)O)C(C)C)C(=O)N[C@@H](CC(C)C)C(=O)N[C@@H](CO)C(=O)N1CCC[C@H]1C(=O)N[C@H](C(=O)N[C@@H](CC(N)=O)C(=O)N[C@H](C(=O)NCC(=O)N[C@@H](CO)C(=O)N[C@@H](CC(N)=O)C(=O)N[C@H](C(=O)N[C@@H](Cc1ccc(O)cc1)C(N)=O)[C@@H](C)O)C(C)C)[C@@H](C)O [Peptide 8, K(γE-γE-C18diacid)[CNTATC]ATQRLANFLVHSS(Dab)NFPAILSPTNVGSNTY-amide] (H-K([γGlu-γGlu-C18 diacid])CNTATCATQRLANFLVHSS[Dab]NFPAILSPTNVGSNTY-NH2; disulfide 2-7) | 20200 pM | 54 | 375 pM | 19900 pM | 4.2 h | 6.2 h |
